Experiments:
[1] = Assay Example 4: distribution in rat plasma and liver tissue; assay type: in vivo; settings: 10 mg/kg intragastric; for Kp at 0.5 h / Kp at 3 h / Kp at 8 h: male, oral, liver/plasma, read-out: Ratio (L/P)
Experimental: (§1) Eighteen male rats were randomly divided into two groups of 9 rats each, fasted (free access to water) overnight, and then intragastrically administered with 10 mg/kg of Compound 1a and Compound 6b, respectively. The subject animals were sacrificed by bloodletting at 0.5 h, 3 h and 8 h after administration. About 1 mL of blood was taken, and anticoagulated with EDTA-K2. The blood samples were immediately placed in ice, and then transferred within 30 min to centrifuge and separate plasma at 4° C. and 4,000 rpm for 10 min. Meanwhile, the whole liver was taken out at the various time points, rinsed with ice-cold physiological saline, blotted dry, weighed, and prepared into a homogenate with physiological saline (W/V=1:5). All plasma and liver homogenates were collected and then immediately stored at −20° C. for testing.
The rats can be fed at 4 h after administration.
(§2) After being completely melted, all the samples were vortexed to mix evenly. 50 μL of the samples were pipetted into a 1.5 mL centrifuge tube respectively and then 300 μL of IS-D (20 ng/ml diazepam acetonitrile) solution was added to each sample (200 μL of acetonitrile was added to the blank sample). The samples were vortexed for 10 min and then centrifuged at 12,000 rpm and 4° C. for 10 min. After 80 μL of pure water was added to a 96-well plate, 80 μL of the supernatants were pipetted respectively from the centrifuge tubes to the 96-well plate, vortexed for 3 min, and then kept at 4° C. until LC-MS/MS injection analysis.

[2] = Assay Example 5: distribution in mouse plasma and liver tissue; assay type: in vivo; settings: 10 mg/kg intragastric; for Kp at 0.5 h / Kp at 3 h / Kp at 8 h: male, oral, liver/plasma, read-out: Ratio (L/P)
Experimental: as §1, with “mice” for “rats”, “groups,” for “groups of 9 rats each,”
The mice can be fed at 4 h after administration.
as §2, with “200” for “300”

[3] = system: GT1a-NS5A-L31V mutant replicon; assay: Assay Example 6: drug resistance, activity against GT1a-NS5A-L31V mutant replicon; assay type: cell-based, hepatitis C virus; settings: for GT1a-NS5A-L31V Fold change: EC50 mutant versus GT1a-wt; for EC50: Hepatitis C virus, GT1A, Huh-7, 72 h, read-out: GT1a-NS5A-L31V EC50 value
Experimental: Cells: Huh-7 cells are liver cancer cell strains (from AppTec, USA), HCVGT1a wild-type replicon and GT1a-NS5A-Y93H and GT1a-NS5A-L31V mutant replicons
Treatment of Compound: According to the assay final concentrations of the compounds in Table 11, DMSO stock solutions of the compounds were diluted and then added to a 96-well assay plate. The final concentration of DMSO was 0.5%.
(§3) The preparation of cells: After replicon plasmid DNA was linearized with a corresponding restriction enzyme, the DNA was transcribed into RNA by using T7 RNA polymerase. Replicon RNA prepared by transcription in vitro was transfected into Huh-7 cells by electroporation. Transfected cells were seeded at a density of 10,000 cells per well into the 96-well assay plate containing the diluted compounds, and then placed in a 37° C. incubator with 5% CO2 and cultured for 3 days.
Compound activity assay: Luminescence signal value (RLU) was detected with Envision within 5 minutes by using the luciferase assay reagent Britelite plus, and the original data (RLU) was used for the calculation of the activity of the compounds.
The activity of the compounds was calculated by using the equation below: Inhibition %=(CPD−ZPE)/(HPE−ZPE)×100%*
The compound activity percentages (Inhibition %) were imported into GraphPad Prism software, and curves were fitted by using nonlinear regression method to obtain the corresponding curves of the compounds and the inhibitory activity (EC50) values against the HCV replicon thereof.

[4] = system: HCV GT1a wild-type replicon; assay: Assay Example 1: activity against HCV GT1a wild-type replicon; assay type: cell-based; settings: Hepatitis C virus, 72 h, Huh 7 cells, 3 days, luciferase
Experimental: (§4) Cells: Huh 7 cell line and HCV GT1b/3a and GT1b/6a NS5A chimeric replicons and GT1b and GT1a wild-type replicon RNA.
(§5) Treatment of Compound: According to the assay final concentrations of the compounds in Table 2, DMSO stock solutions of the compounds were diluted and then added to a 96-well assay plate. The final concentration of DMSO was 0.5%.
as §3, with “T7RNA” for “T7 RNA”, “then the plate was” for “then”
(§6) Drug activity assay: Luminescence signal value (RLU) was detected with Envision within 15 minutes using the luciferase assay reagent Britelite plus, and the original data (RLU) was used for the calculation of the activity of the compounds.
(§7) The activity of the compounds was calculated by using the equation below: Inhibition %=(ZPE−CPD)/(ZPE−HPE)×100%*
(§8) The cell viability percentages (Viability %) and the inhibition percentages (Inhibition %) were imported into GraphPad Prism software, respectively, and curves were fitted by using nonlinear regression method to obtain the corresponding curves of the compounds, and the cytotoxicity (CC50) thereof and inhibitory activity (EC50) values against the HCV replicon thereof.

[5] = system: HCV GT1b/6a NS5A chimeric replicon; assay: Assay Example 1: activity against HCV GT1b/6a NS5A chimeric replicon; assay type: cell-based; settings: Hepatitis C virus, Huh-7, 72 h, read-out: EC50 value GT1b/6a NS5A chimeric replicon
Experimental: as §4, §5
as §3, with “T7RNA” for “T7 RNA”, “then the plate was” for “then”
as §6, §7, §8

## COC(=O)N[C@H](C(=O)N1CCC[C@H]1C(=O)Nc1ccc([C@@H]2CC[C@@H](c3ccc(NC(=O)[C@@H]4CCCN4C(=O)[C@@H](NC(=O)OC)[C@@H](C)OC)cc3)N2c2cc(F)c(N3CC[Si](C)(C)CC3)c(F)c2)cc1)[C@@H](C)OC [Compound 1a, Methyl ((2S,2′S,3R,3′R)-((2S,2′S)-(((((2S,5S)-1-(4-(4,4-dimethylazasilinan-1-yl)-3,5-difluorophenyl)pyrrolidin-2,5-diyl)bis(4,1-phenylene))bis(azanediyl))bis(carbonyl))bis(pyrrolidin-2,1-diyl))bis(3-methoxy-1-oxobutan-1,2-diyl))dicarbamate]
[1]; 0.5 h
  Liver concentration: 384 ± 121
  Plasma concentration: 54.7 ± 7.82
  Kp at 0.5 h: 7.01
[1]; 3 h
  Liver concentration: 1711 ± 485
  Plasma concentration: 70.1 ± 20.6
  Kp at 3 h: 24.4
[1]; 8 h
  Liver concentration: 1087 ± 822
  Plasma concentration: 59 ± 33.7
  Kp at 8 h: 18.4
[2]; 0.5 h
  Liver concentration: 337 ± 33.1
  Plasma concentration: 139 ± 16.9
  Kp at 0.5 h: 2.43
[2]; 3 h
  Liver concentration: 2644 ± 147.3
  Plasma concentration: 384 ± 81
  Kp at 3 h: 6.89
[2]; 8 h
  Liver concentration: 334 ± 73.9
  Plasma concentration: 59 ± 7.8
  Kp at 8 h: 5.67
[3]
  GT1a-NS5A-L31V Fold change: 40.9
  EC50: 0.027 nM
[4]
  EC50: 0.0077 nM
[5]
  EC50: 0.017 nM

## COC(=O)N[C@H](C(=O)N1CCC[C@H]1C(=O)Nc1ccc([C@H]2CC[C@H](c3ccc4nc([C@@H]5CCCN5C(=O)[C@@H](NC(=O)OC)[C@@H](C)OC)[nH]c4c3)N2c2cc(F)c(N3CC[Si](C)(C)CC3)c(F)c2)cc1)[C@@H](C)OC [Compound 6b]
[1]; 0.5 h
  Liver concentration: 212 ± 57.2
  Plasma concentration: 19.8 ± 8.31
  Kp at 0.5 h: 10.7
[1]; 3 h
  Liver concentration: 495 ± 171
  Plasma concentration: 34.8 ± 14.7
  Kp at 3 h: 14.2
[1]; 8 h
  Liver concentration: 77.5 ± 20.6
  Plasma concentration: 5.82 ± 0.99
  Kp at 8 h: 13.3
[2]; 0.5 h
  Liver concentration: 401 ± 116
  Plasma concentration: 226 ± 66
  Kp at 0.5 h: 1.78
[2]; 3 h
  Liver concentration: 960 ± 530
  Plasma concentration: 464 ± 363.3
  Kp at 3 h: 2.07
[2]; 8 h
  Liver concentration: 18 ± 1
  Plasma concentration: 10 ± 5.8
  Kp at 8 h: 1.76
[3]
  GT1a-NS5A-L31V Fold change: 10.0
  EC50: 0.022 nM
[4]
  EC50: 0.0062 nM
[5]
  EC50: 0.0054 nM

From patent US10766912B2 (priority 2017, dated 2020)
